Data published in PubChem BioAssay (NCI).
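Dose response: 5 concentrations. Exposure: 48 h. Format: 96-well plates. Endpoint: linear interpolation; highest concentration if not reached. TGI: concentration producing complete growth inhibition.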

Legend:
Assay in all cases: NCI tumour cell line growth inhibition, 48 h
A549 NSCLC = test system: A549 NSCLC
CAKI-1 renal = test system: CAKI-1 renal
COLO 205 colon = test system: COLO 205 colon
HCT-15 colon = test system: HCT-15 colon
HOP-62 NSCLC = test system: HOP-62 NSCLC
HT29 colon = test system: HT29 colon
MDA-N = test system: MDA-N
SK-MEL-28 melanoma = test system: SK-MEL-28 melanoma
SK-OV-3 ovarian = test system: SK-OV-3 ovarian
SR leukemia = test system: SR leukemia

O=C1/C(=C/c2ccc3c(c2)OCO3)Sc2scc(-c3ccc(O)c(O)c3)[n+]21 gave a TGI (A549 NSCLC) of 46.3 µM, a TGI (CAKI-1 renal) of 2.9 µM and a TGI (COLO 205 colon) of over 19.7 µM. For the same compound, the TGI (HCT-15 colon) was 3.61 µM, the TGI (HOP-62 NSCLC) was 41.6 µM and the TGI (HT29 colon) was 18.6 µM. It also gave a TGI (MDA-N) of 9.81 µM, a TGI (SK-MEL-28 melanoma) of over 100 µM and a TGI (SK-OV-3 ovarian) of 17.5 µM.
Compound Cc1cc(O)c2cc3c(O)c(O)ccc3cc2c1 has a TGI (A549 NSCLC) of over 26.3 µM, a TGI (CAKI-1 renal) of 6.63 µM and a TGI (COLO 205 colon) of 1.46 µM. For the same compound, the TGI (HCT-15 colon) was 5.91 µM, the TGI (HOP-62 NSCLC) was 10.3 µM and the TGI (HT29 colon) was 8.43 µM. For the same compound, the TGI (MDA-N) was 8.86 µM, the TGI (SK-MEL-28 melanoma) was over 58.8 µM and the TGI (SK-OV-3 ovarian) was 9.82 µM. It also gave a TGI (SR leukemia) of 3.25 µM.
CCOC(=O)c1c(SC)nc(-c2ccc(Cl)cc2)sc1=N gave a TGI (A549 NSCLC) of over 100 µM, a TGI (CAKI-1 renal) of over 100 µM and a TGI (COLO 205 colon) of 44.9 µM. It also gave a TGI (HCT-15 colon) of 73.9 µM, a TGI (HOP-62 NSCLC) of 95.7 µM and a TGI (HT29 colon) of over 100 µM. It also gave a TGI (SK-MEL-28 melanoma) of over 100 µM and a TGI (SK-OV-3 ovarian) of over 100 µM.
Compound O=[N+]([O-])c1ccc(/C=N/n2c(CCc3n[nH]c(=S)n3/N=C/c3ccc([N+](=O)[O-])o3)n[nH]c2=S)o1 has a TGI (CAKI-1 renal) of 44.8 µM, a TGI (HCT-15 colon) of 32.7 µM and a TGI (HOP-62 NSCLC) of 69.8 µM. For the same compound, the TGI (HT29 colon) was 86.4 µM, the TGI (MDA-N) was 26.7 µM and the TGI (SK-MEL-28 melanoma) was 31.5 µM. For the same compound, the TGI (SK-OV-3 ovarian) was over 100 µM and the TGI (SR leukemia) was 80.7 µM.
Compound O=CNNC(=O)CSc1nc2ccc(I)cc2c(=O)n1Cc1ccccc1 has a TGI (A549 NSCLC) of over 100 µM, a TGI (CAKI-1 renal) of 57.5 µM and a TGI (COLO 205 colon) of 36.4 µM. The TGI (HCT-15 colon) was over 100 µM, the TGI (HOP-62 NSCLC) was over 100 µM and the TGI (HT29 colon) was over 100 µM. For the same compound, the TGI (MDA-N) was over 100 µM, the TGI (SK-MEL-28 melanoma) was over 100 µM and the TGI (SK-OV-3 ovarian) was over 100 µM. It also gave a TGI (SR leukemia) of over 100 µM.
Cc1ccc([S+](c2ccccc2)c2cc(C)ccc2C)cc1 (stereo not drawn) was tested, and the TGI (A549 NSCLC) was over 100 µM, the TGI (CAKI-1 renal) was over 100 µM and the TGI (COLO 205 colon) was 61.2 µM. It also gave a TGI (HOP-62 NSCLC) of 90.8 µM and a TGI (SR leukemia) of over 100 µM.
Compound COC1=CCC2=C(CCN(C(=O)C3CC3)C2Cc2ccc(OC)c(O)c2)C1 (stereo not drawn) has a TGI (A549 NSCLC) of over 100 µM, a TGI (CAKI-1 renal) of over 100 µM and a TGI (COLO 205 colon) of over 100 µM. For the same compound, the TGI (HCT-15 colon) was 59.6 µM, the TGI (HOP-62 NSCLC) was over 100 µM and the TGI (HT29 colon) was over 100 µM. It also gave a TGI (SK-MEL-28 melanoma) of over 100 µM, a TGI (SK-OV-3 ovarian) of over 100 µM and a TGI (SR leukemia) of 82.6 µM.
For CC(=O)OCC1OC(N2C(=O)CC(N)=Nc3ccccc32)C(OC(C)=O)C(OC(C)=O)C1OC(C)=O (stereo not drawn), the TGI (A549 NSCLC) was over 100 µM, the TGI (CAKI-1 renal) was over 100 µM and the TGI (COLO 205 colon) was 29.7 µM. For the same compound, the TGI (HCT-15 colon) was over 100 µM, the TGI (HOP-62 NSCLC) was over 100 µM and the TGI (HT29 colon) was over 100 µM. It also gave a TGI (MDA-N) of over 100 µM, a TGI (SK-MEL-28 melanoma) of over 100 µM and a TGI (SK-OV-3 ovarian) of over 100 µM. It also gave a TGI (SR leukemia) of over 100 µM.
With O=C1CC(NC2CC(=O)c3c(Br)sc(Br)c32)c2c(Br)sc(Br)c21 (stereo not drawn) the TGI (A549 NSCLC) was 38.9 µM, the TGI (CAKI-1 renal) was 9.72 µM and the TGI (COLO 205 colon) was 8.77 µM. For the same compound, the TGI (HCT-15 colon) was 9.2 µM, the TGI (HOP-62 NSCLC) was 12.2 µM and the TGI (HT29 colon) was 8.91 µM. For the same compound, the TGI (MDA-N) was 5.82 µM, the TGI (SK-MEL-28 melanoma) was over 55.4 µM and the TGI (SK-OV-3 ovarian) was 32.6 µM.
Oc1ccc(NCc2cc(O)ccc2O)cc1 was tested, and the TGI (A549 NSCLC) was over 100 µM, the TGI (CAKI-1 renal) was 34.9 µM and the TGI (COLO 205 colon) was 62.3 µM. The TGI (HCT-15 colon) was 36.8 µM, the TGI (HOP-62 NSCLC) was 35.7 µM and the TGI (HT29 colon) was 57.6 µM. The TGI (MDA-N) was 11.1 µM, the TGI (SK-MEL-28 melanoma) was 45.7 µM and the TGI (SK-OV-3 ovarian) was 36.7 µM.
CC(C)(C)OC(=O)N1CCCC1C(=O)NCCNc1ccc(NCCNC(=O)C2CCCN2C(=O)OC(C)(C)C)c2c1C(=O)c1ccccc1C2=O (stereo not drawn) showed a TGI (A549 NSCLC) of 33.9 µM, a TGI (CAKI-1 renal) of 36.9 µM and a TGI (COLO 205 colon) of 27.5 µM. It also gave a TGI (HCT-15 colon) of 26.8 µM, a TGI (HOP-62 NSCLC) of 33.2 µM and a TGI (HT29 colon) of 38.2 µM. For the same compound, the TGI (SK-MEL-28 melanoma) was 35.6 µM, the TGI (SK-OV-3 ovarian) was 39.6 µM and the TGI (SR leukemia) was over 100 µM.
CN(CCNC(=O)c1cn(C)c2c1ccc1cc(Cl)ccc12)CCNC(=O)c1cn(C)c2c1ccc1cc(Cl)ccc12 showed a TGI (CAKI-1 renal) of 4.99 µM, a TGI (COLO 205 colon) of 2.57 µM and a TGI (HCT-15 colon) of 3.3 µM. It also gave a TGI (HT29 colon) of 3.62 µM, a TGI (MDA-N) of 3.41 µM and a TGI (SK-MEL-28 melanoma) of 10.9 µM. For the same compound, the TGI (SR leukemia) was 38 µM.
